Data published in US6821980B1, “Substituted 5-benzyl-2,4-diaminopyrimidines” (Basilea Pharmaceutica AG, priority 1999, dated 2004).
Values after ≈ are worked out from the molar mass of the structure shown.

Key:
[1] = target: purified DHFR of strain 157/4696 of Staphylococcus aureus (Staphylococcus aureus, UniProt P13955); test: biochemical
[2] = test system: Staphylococcus aureus 101; test: MIC against Staphylococcus aureus 101; type: cell-based; details: Table 2; Staphylococcus aureus 101, MRSA- and trimethoprim-resistant; clinical isolate; read-out: MIC Sa101
[3] = target: T1, purified DHFR of strain Sp1/1 of Streptococcus pneumoniae (Streptococcus pneumoniae serotype 4, UniProt Q54801); type: biochemical; details: Table 2; IC50 against purified DHFR of strain Sp1/1
T1 sequence (Q54801 1-168 I100L): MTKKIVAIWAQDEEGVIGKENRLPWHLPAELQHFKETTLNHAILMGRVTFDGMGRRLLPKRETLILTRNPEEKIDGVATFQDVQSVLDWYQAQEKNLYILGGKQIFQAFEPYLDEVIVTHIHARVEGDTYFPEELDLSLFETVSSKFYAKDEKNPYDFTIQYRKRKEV

[4] = test system: Streptococcus pneumoniae 1/1; test: MIC against Streptococcus pneumoniae 1/1; type: cell-based; details: Table 2; Streptococcus pneumoniae 1/1, trimethoprim- and penicillin-resistant, serotype 6; clinical isolate; read-out: MIC Sp1/1

Sequence of purified DHFR of strain 157/4696 of Staphylococcus aureus (P13955 whole entry): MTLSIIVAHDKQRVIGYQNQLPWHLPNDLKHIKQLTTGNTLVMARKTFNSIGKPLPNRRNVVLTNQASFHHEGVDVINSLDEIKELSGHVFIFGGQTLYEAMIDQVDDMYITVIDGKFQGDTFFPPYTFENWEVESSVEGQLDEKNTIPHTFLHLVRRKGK

CCOc1cc(Cc2cnc(N)nc2N)cc(OCC2CC2)c1-c1ccc(OCC#N)cc1 [Example 59-, [2′-Cycloproplmethoxy-4′-(2,4-diamino-pyrimidin-5-ylmethyl)-6′-ethoxy-biphenyl-4-yloxy]-acetonitrile]
IC50 [1]: 1800 nM
MIC [2]: 8 µg/mL (≈ 18 µM)
IC50 [3]: 18 nM
MIC [4]: 2 µg/mL (≈ 4.49 µM)

CCOc1cc(Cc2cnc(N)nc2N)cc(OS(=O)(=O)N(C)C)c1-c1ccc(S(C)(=O)=O)cc1 [Example 60-, Dimethylsulphamic acid 4-(2,4-diamino-pyrimidin-5-ylmethyl)-6-ethoxy-4′-methanesulphonyl-biphenyl-2-yl ester]
IC50 [1]: 280 nM
MIC [2]: 4 µg/mL (≈ 7.67 µM)
IC50 [3]: 88 nM
MIC [4]: 8 µg/mL (≈ 15.3 µM)

CCOc1cc(Cc2cnc(N)nc2N)cc(OS(=O)(=O)CC(C)C)c1-c1ccc(OCCO)cc1 [Example 61-a, 2-Methyl-propane-1-sulphonic acid 4-(2,4-diamino-pyrimidin-5-ylmethyl)-6-ethoxy-4′-(2-hydroxy-ethoxy)-biphenyl-2-yl ester]
IC50 [1]: 550 nM
MIC [2]: 2 µg/mL (≈ 3.87 µM)
IC50 [3]: 1.8 nM
MIC [4]: 0.5 µg/mL (≈ 0.968 µM)

CCOc1cc(Cc2cnc(N)nc2N)cc(OS(=O)(=O)C(C)CC)c1-c1ccc(OCCO)cc1 (stereo not shown) [Example 61-b]
IC50 [1]: 210 nM
MIC [2]: 2 µg/mL (≈ 3.87 µM)
IC50 [3]: 11 nM
MIC [4]: 1 µg/mL (≈ 1.94 µM)

CCOc1cc(Cc2cnc(N)nc2N)cc(OS(=O)(=O)N(C)C)c1-c1ccc(OC(C)=O)cc1 [Example 62-, 4′-(2,4-Diamino-pyrimidin-5-ylmethyl)-2′-dimethylsulphamoylxy-6′-ethoxy-biphenyl-4-yl acetate]
IC50 [1]: 330 nM
MIC [2]: 2 µg/mL
IC50 [3]: 7.9 nM
MIC [4]: 2 µg/mL

CCOc1cc(Cc2cnc(N)nc2N)cc(OS(=O)(=O)CC(C)C)c1-c1ccc(OCCOC)cc1 [Example 63-, 2-Methyl-propane-1-sulphonic acid 4-(2,4-diamino-pyrimidin-5-ylmethyA)-6-ethoxy-4′-(2-methox-ethoxy)-biphenyl-2-yl ester]
IC50 [1]: 380 nM
MIC [2]: 4 µg/mL (≈ 7.54 µM)
IC50 [3]: 1.8 nM
MIC [4]: 1 µg/mL (≈ 1.88 µM)

CCOc1cc(Cc2cnc(N)nc2N)cc(OS(C)(=O)=O)c1-c1ccc(CN2CCOCC2)c(F)c1 [Example 64-a, Methanesulphonic acid 4-(2,4-diamino-pyrimidin-5-ylmethyl)-6-ethoxy-3′-fluoro-4′-morpholin-4-ylmethyl-biphenyl-2-yl ester]
IC50 [1]: 1500 nM
MIC [2]: 8 µg/mL (≈ 15 µM)
IC50 [3]: 52 nM
MIC [4]: 4 µg/mL (≈ 7.52 µM)

CCOc1cc(Cc2cnc(N)nc2N)cc(OS(=O)(=O)N(C)C)c1-c1ccc(CN2CCOCC2)c(F)c1 [Example 64-b, Dimethylsulphamic acid 4-(2,4-diamino-pyrimidin-5-ylmethUl)-6-ethoxy-3′-fluoro-4′-morpholin-4-ylmethyl-biphenyl-2-yl ester]
IC50 [1]: 300 nM
MIC [2]: 2 µg/mL (≈ 3.57 µM)
IC50 [3]: 27 nM
MIC [4]: 2 µg/mL (≈ 3.57 µM)

CCOc1cc(Cc2cnc(N)nc2N)cc(OS(=O)(=O)N(C)C)c1-c1ccc(CN2CCOCC2)cc1 [Example 65-, Dimethylsulphamic acid 4-(2,4-diamino-pyrimidin-5-ylmethyl)-6-ethoxy-4′-morpholin-4-ylmethyl-biphenyl-2-yl ester]
IC50 [1]: 160 nM
MIC [2]: 2 µg/mL (≈ 3.69 µM)
IC50 [3]: 24 nM
MIC [4]: 2 µg/mL (≈ 3.69 µM)

CCOc1cc(Cc2cnc(N)nc2N)cc(OS(=O)(=O)N(C)C)c1-c1ccc(CN(C)CCF)cc1 [Example 66-, Dimethylsulphamic acid 4-(2,4-diamino-pyrimidin-5-ylmethyl)-6-ethoxy-4′-{[N-(2-fluoro-ethyl)-N-methyl-amino]-methyl}-binhenyl-2-yl ester]
IC50 [1]: 170 nM
MIC [2]: 2 µg/mL (≈ 3.75 µM)
IC50 [3]: 52 nM
MIC [4]: 4 µg/mL (≈ 7.51 µM)
